Values joined by “and” are separate entries in the source; they are usually repeats but may differ in a detail not shown here. Equal entries are not always repeated. Where two headings read alike, the source gives them in different places. Values belong to the molecule of their own block, whether it stands above or below them.
What was measured:
Arabidopsis seedlings = assay: Arabidopsis seedling growth / root elongation on MS medium with exogenous NAE 12:0; type: in vivo; details: for EC50: Arabidopsis thaliana
Description: FIG. 11A-11C. Lengths of Arabidopsis seedling radicles/roots were measured daily after planting on MS medium that contained increasing concentrations of NAE 12:0. Data points are averages and standard deviation of 20 or more seedlings germinated and grown under identical conditions. There was a pronounced dose-dependent reduction in radicle/root length and elongation rate, similar to that shown previously (Blancaflor et al., 2003) for wildtype seedlings (FIG. 11A), and this seedling growth inhibition was more pronounced at higher NAE concentrations for both knockout lines (FIG. 11B and FIG. 11C).
FIG. 12. The rate of root elongation was calculated by a linear regression of the data presented in FIG. 11, and plotted as a function of NAE concentration.
Composite images were taken from seedlings grown on different plates, and were representative of typical replicate experiments. […] The altered profiles of extractable FAAH enzyme activities in mutant and transgenic plants led to predictable differences in the sensitivity of seedlings to exogenous NAE 12:0 indicating a modified ability of these plants to metabolize NAEs. Seedling growth of Arabidopsis wildtype seedlings was inhibited by exogenous treatment of NAE12:0).

rice (Os) FAAH = assay: NAE amidohydrolase activity of E. coli lysates expressing rice (Os) FAAH cDNA; type: biochemical, Oryza sativa; details: E. coli lysate, compared with NAE 18:2
[1] = target: Medicago truncatula (Mt) FAAH (Medicago truncatula, UniProt G7ISB0, G303S); type: biochemical; details: E. coli lysate, compared with NAE 18:2
Sequence of Medicago truncatula (Mt) FAAH (G7ISB0 whole entry G303S, looked up, the tested form may be a part): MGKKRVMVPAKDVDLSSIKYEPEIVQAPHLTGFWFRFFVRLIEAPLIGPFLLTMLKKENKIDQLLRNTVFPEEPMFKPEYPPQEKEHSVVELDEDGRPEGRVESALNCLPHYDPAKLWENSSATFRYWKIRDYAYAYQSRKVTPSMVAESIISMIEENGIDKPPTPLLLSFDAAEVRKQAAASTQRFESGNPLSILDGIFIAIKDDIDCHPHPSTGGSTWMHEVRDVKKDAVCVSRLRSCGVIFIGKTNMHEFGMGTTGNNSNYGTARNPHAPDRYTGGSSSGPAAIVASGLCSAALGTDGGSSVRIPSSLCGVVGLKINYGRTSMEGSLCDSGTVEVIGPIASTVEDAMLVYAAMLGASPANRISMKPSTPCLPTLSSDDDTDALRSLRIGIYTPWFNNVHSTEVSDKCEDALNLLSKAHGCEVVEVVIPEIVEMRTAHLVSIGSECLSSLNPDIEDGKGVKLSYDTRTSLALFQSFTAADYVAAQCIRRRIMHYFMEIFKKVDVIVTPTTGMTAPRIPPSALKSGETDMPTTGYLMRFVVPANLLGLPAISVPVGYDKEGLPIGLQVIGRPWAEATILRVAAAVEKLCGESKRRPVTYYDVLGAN

[2] = target: Arabidopsis NAE amidohydrolase (Arabidopsis thaliana, UniProt Q7XJJ7); assay: NAE amidohydrolase activity survey in crude E. coli lysates expressing Arabidopsis cDNA; type: biochemical
[3] = target: Arabidopsis NAE amidohydrolase (FAAH) (Arabidopsis thaliana, UniProt Q7XJJ7); type: biochemical
[4] = substrate: CCCCCCCCCCCC(=O)NCCO; assay: purified protein, by the assay type; details: other: apparent, substrate, 1 μg protein, pH 9.0, 30 min, 30° C., Michaelis-Menten fit
[5] = substrate: CCCCC/C=C\C/C=C\CCCCCCCC(=O)NCCO; assay: purified protein, by the assay type; details: other: apparent, substrate, 1 μg protein, pH 9.0, 30 min, 30° C., Michaelis-Menten fit
[6] = substrate: CCCCCCCCCCCCCC(=O)NCCO; assay: purified protein, by the assay type; details: other: apparent, substrate, 1 μg protein, pH 9.0, 30 min, 30° C., Michaelis-Menten fit
[7] = substrate: CCCCCCCCCCCCCCCC(=O)NCCO; assay: purified protein, by the assay type; details: other: apparent, substrate, 1 μg protein, pH 9.0, 30 min, 30° C., Michaelis-Menten fit
[8] = substrate: CCCCC/C=C\C/C=C\C/C=C\C/C=C\CCCC(=O)NCCO; assay: purified protein, by the assay type; details: other: apparent, substrate, 1 μg protein, pH 9.0, 30 min, 30° C., Michaelis-Menten fit

Molecule: CCCCCCCCCCCC(=O)NCCO [NAE 12:0, N-lauroylethanolamine]
- EC50 (Arabidopsis seedlings; FAAH knockout seedlings, first value of the two knockout lines, read-out: EC50, rate of root elongation): 18 µM
- EC50 (Arabidopsis seedlings; FAAH knockout seedlings, second value of the two knockout lines, read-out: EC50, rate of root elongation): 23 µM
- EC50 (Arabidopsis seedlings; read-out: concentration that reduced growth by 50% (EC50), rate of root elongation, wildtype seedlings): ~29 µM
- seedling growth inhibition (Arabidopsis seedlings; FAAH gene expression reduced, particularly knockouts, 14 d growth): greatly exacerbated
- seedling sensitivity to application (Arabidopsis seedlings; FAAH overexpressors, 14 d growth): essentially insensitive
- seedling growth (Arabidopsis seedlings; wildtype seedlings, continuous exposure, 14 d growth): reduced

Molecule: CCCCCCCCCCCCCCCC(=O)NCCO [NAE 16:0, N-palmitoylethanolamine]
- suitability as substrate (rice (Os) FAAH): equally suitable substrates
- suitability as substrate [1]: equally suitable substrates

Molecule: CCCCC/C=C\C/C=C\CCCCCCCC(=O)NCCO [NAE 18:2, N-linoleoylethanolamine]
- hydrolysis as substrate by recombinant Arabidopsis NAE amidohydrolase [2]: effectively hydrolyzed

Molecule: O=S(=O)(F)Cc1ccccc1 [PMSF, Phenylmethylsulfonyl fluoride]
- Specific Activity [3]: 11.34 ± 0.55 μmol h^−1 mg^−1 Protein and 9.06 ± 1.86 μmol h^−1 mg^−1 Protein and 7.89 ± 0.37 μmol h^−1 mg^−1 Protein and 6.72 ± 0.70 μmol h^−1 mg^−1 Protein and 5.96 ± 0.43 μmol h^−1 mg^−1 Protein

- hydrolysis as substrate by recombinant Arabidopsis NAE amidohydrolase [2]: did not hydrolyze
Molecule: ceramide
- influence on NAE hydrolysis [2]: nor did ceramide influence NAE hydrolysis

B1: recombinant Arabidopsis thaliana NAE amidohydrolase (Arabidopsis thaliana) (protein)
chain: MGKYQVMKRASEVDLSTVKYKAETMKAPHLTGLSFKLFVNLLEAPLIGSLIVDYLKKDNGMTKIFRNTVIPEEPMFRPEFPSQEPEHDVVIVGEDESPIDRLETALKCLPQYDPSRSLHADPVSSFRYWKIRDYAYAYRSKLTTPLQVAKRIISIIEEFGYDKPPTPFLIRFDANEVIKQAEASTRRFEQGNPISVLDGIFVTIKDDIDCLPHPTNGGTTWLHEDRSVEKDSAVVSKLRSCGAILLGKANMHELGMGTTGNNSNYGTTRNPHDPKRYTGGSSSGSAAIVAAGLCSAALGTDGGGSVRIPSALCGITGLKTTYGRTDMTGSLCEGGTVEIIGPLASSLEDAFLVYAAILGSSSADRYNLKPSPPCFPKLLSHNGSNAIGSLRLGKYTKWFNDVSSSDISDKCEDILKLLSNNHGCKVVEIVVPELEEMRAAHVISIGSPTLSSLTPYCEAGKNSKLSYDTRTSFAIFRSFSASDYIAAQCLRRRLMEYHLNIFKDVDVIVTPTTGMTAPVIPPDALKNGETNIQVTTDLMRFVLAANLLGFPAISVPVGYDKEGLPIGLQIMGRPWAEATVLGLAAAVEELAPVTKKPAIFYDILNTN
- Km [4]: 17.6 ± 2.8 µM
- Vmax [4]: 0.232 µmol/min/mg
- Km [5]: 26.2 ± 5.3 µM
- Vmax [5]: 0.235 µmol/min/mg
- Km [6]: 37.0 ± 5.6 µM
- Vmax [6]: 0.152 µmol/min/mg
- Km [7]: 50.8 ± 14.1 µM
- Vmax [7]: 0.202 µmol/min/mg
- Km [8]: 13.6 ± 2.1 µM
- Vmax [8]: 0.298 µmol/min/mg

Source: patent US7316928B2, “Plant fatty acid amide hydrolases” (The University of North Texas, priority 2003, dated 2008)
